Results reported in the NIST ThermoML archive (doi:10.1021/je3007666).
Numbers after ± are expanded uncertainties.

Experiment: relative permittivity at zero frequency (dimensionless); xn = mol fraction of the nth substance listed
Conditions: 100 kPa, Liquid, Dielectrometer

CC(C)(C)O [2-methylpropan-2-ol] + CCCCO
relative permittivity at zero frequency
Conditions	288.15 K	293.15 K	298.15 K	303.15 K	308.15 K
x1 = 0.0501	18.96 ± 0.06	18.21 ± 0.06	17.49 ± 0.06	16.81 ± 0.06	16.12 ± 0.06
x1 = 0.1012	18.93 ± 0.06	18.16 ± 0.06	17.42 ± 0.06	16.68 ± 0.06	15.97 ± 0.06
x1 = 0.1503	18.85 ± 0.06	18.04 ± 0.06	17.29 ± 0.06	16.53 ± 0.06	15.81 ± 0.06
x1 = 0.2003	18.75 ± 0.06	17.92 ± 0.06	17.15 ± 0.06	16.37 ± 0.06	15.62 ± 0.06
x1 = 0.2497	18.61 ± 0.06	17.79 ± 0.06	16.99 ± 0.06	16.19 ± 0.06	15.44 ± 0.06
x1 = 0.299	18.48 ± 0.06	17.63 ± 0.06	16.85 ± 0.06	16.01 ± 0.06	15.25 ± 0.06
x1 = 0.349	18.36 ± 0.06	17.5 ± 0.06	16.69 ± 0.06	15.83 ± 0.06	15.07 ± 0.06
x1 = 0.3993	18.25 ± 0.06	17.35 ± 0.06	16.53 ± 0.06	15.65 ± 0.06	14.87 ± 0.06
x1 = 0.4505	18.13 ± 0.06	17.22 ± 0.06	16.38 ± 0.06	15.45 ± 0.06	14.63 ± 0.06
x1 = 0.5001	18.01 ± 0.06	17.06 ± 0.06	16.19 ± 0.06	15.25 ± 0.06	14.42 ± 0.06
x1 = 0.5511	17.89 ± 0.06	16.91 ± 0.06	16.01 ± 0.06	15.02 ± 0.06	14.15 ± 0.06
x1 = 0.5998	17.74 ± 0.06	16.73 ± 0.06	15.82 ± 0.06	14.79 ± 0.06	13.89 ± 0.06
x1 = 0.649	17.6 ± 0.06	16.54 ± 0.06	15.58 ± 0.06	14.51 ± 0.06	13.59 ± 0.06
x1 = 0.7001	17.39 ± 0.06	16.31 ± 0.06	15.32 ± 0.06	14.21 ± 0.06	13.25 ± 0.06
x1 = 0.7503	17.15 ± 0.06	16.03 ± 0.06	15 ± 0.06	13.88 ± 0.06	12.89 ± 0.06
x1 = 0.8003	16.84 ± 0.06	15.7 ± 0.06	14.63 ± 0.06	13.48 ± 0.06	12.49 ± 0.06
x1 = 0.8497	16.45 ± 0.06	15.26 ± 0.06	14.21 ± 0.06	13.03 ± 0.06	12.04 ± 0.06
x1 = 0.899	15.96 ± 0.06	14.77 ± 0.06	13.71 ± 0.06	12.53 ± 0.06	11.55 ± 0.06
x1 = 0.95	15.29 ± 0.06	14.15 ± 0.06	13.15 ± 0.06	11.97 ± 0.06	11 ± 0.06
x1 = 1	14.49 ± 0.06	13.38 ± 0.06	12.49 ± 0.06	11.34 ± 0.06	10.4 ± 0.06

CCC(C)O (stereo not given) [butan-2-ol] + CCCCO
relative permittivity at zero frequency
Conditions	288.15 K	293.15 K	298.15 K	303.15 K	308.15 K
x1 = 0.0501	18.97 ± 0.06	18.24 ± 0.06	17.54 ± 0.06	16.86 ± 0.06	16.21 ± 0.06
x1 = 0.0987	18.93 ± 0.06	18.2 ± 0.06	17.49 ± 0.06	16.81 ± 0.06	16.16 ± 0.06
x1 = 0.1506	18.89 ± 0.06	18.15 ± 0.06	17.44 ± 0.06	16.76 ± 0.06	16.1 ± 0.06
x1 = 0.1998	18.86 ± 0.06	18.11 ± 0.06	17.4 ± 0.06	16.71 ± 0.06	16.05 ± 0.06
x1 = 0.2503	18.82 ± 0.06	18.07 ± 0.06	17.35 ± 0.06	16.65 ± 0.06	15.99 ± 0.06
x1 = 0.2986	18.79 ± 0.06	18.03 ± 0.06	17.3 ± 0.06	16.6 ± 0.06	15.93 ± 0.06
x1 = 0.3512	18.75 ± 0.06	17.99 ± 0.06	17.25 ± 0.06	16.54 ± 0.06	15.87 ± 0.06
x1 = 0.3977	18.72 ± 0.06	17.95 ± 0.06	17.2 ± 0.06	16.49 ± 0.06	15.81 ± 0.06
x1 = 0.4497	18.69 ± 0.06	17.91 ± 0.06	17.16 ± 0.06	16.43 ± 0.06	15.74 ± 0.06
x1 = 0.4998	18.67 ± 0.06	17.87 ± 0.06	17.11 ± 0.06	16.37 ± 0.06	15.68 ± 0.06
x1 = 0.5501	18.64 ± 0.06	17.83 ± 0.06	17.06 ± 0.06	16.32 ± 0.06	15.61 ± 0.06
x1 = 0.6011	18.61 ± 0.06	17.79 ± 0.06	17.01 ± 0.06	16.26 ± 0.06	15.54 ± 0.06
x1 = 0.649	18.59 ± 0.06	17.76 ± 0.06	16.96 ± 0.06	16.2 ± 0.06	15.47 ± 0.06
x1 = 0.7005	18.57 ± 0.06	17.72 ± 0.06	16.91 ± 0.06	16.14 ± 0.06	15.4 ± 0.06
x1 = 0.7511	18.55 ± 0.06	17.68 ± 0.06	16.86 ± 0.06	16.07 ± 0.06	15.32 ± 0.06
x1 = 0.7986	18.53 ± 0.06	17.65 ± 0.06	16.81 ± 0.06	16.01 ± 0.06	15.25 ± 0.06
x1 = 0.8498	18.51 ± 0.06	17.62 ± 0.06	16.76 ± 0.06	15.95 ± 0.06	15.17 ± 0.06
x1 = 0.9006	18.5 ± 0.06	17.58 ± 0.06	16.71 ± 0.06	15.88 ± 0.06	15.09 ± 0.06
x1 = 0.9487	18.48 ± 0.06	17.55 ± 0.06	16.66 ± 0.06	15.82 ± 0.06	15.01 ± 0.06
x1 = 1	18.47 ± 0.06	17.51 ± 0.06	16.6 ± 0.06	15.75 ± 0.06	14.94 ± 0.06
